Article PMC6792352, “Limited Chemical Structural Diversity Found to Modulate Thyroid Hormone Receptor in the Tox21 Chemical Library” (Environmental Health Perspectives, 2019)
Structures can show the parent of a compound that is named as a salt. Where two headings read alike, the source gives them in different places. Starred links: 1 amine or outer side, 2 acyl side, 3 side chain; linkers in the order of their positions; H or OH if unused. Positions of bridges follow the written chain, without caps; N, C: chain ends. Non-standard residues stand in square brackets, D forms with d. Residues, ends and D or L forms follow the SMILES beside them. Chains are numbered I, II in the order given. Actinocin(9to1) = Cc1c2oc3c(C)ccc(C(=O)[*:1])c3nc-2c(C(=O)[*:2])c(N)c1=O; NMeV = CN[C@H](C(=O)O)C(C)C; Sar = CNCC(=O)O

Test system: GH3-TRE-Luc cell line
Settings: read-out: AC50 (uM) modified / 1000, viability, 1 nM T3 present, 24 h

CCCCNC(=O)OCC#CI [3-Iodo-2-propynyl-N-butylcarbamate]
CC50 (Tox21_110001=Tox21_201864): 15.9 µM | CC50 (Tox21_110001=Tox21_301117): 4.22 µM

Cc1c2oc3c(C)ccc(C(=O)N[C@@H]4C(=O)N[C@H](C(C)C)C(=O)N5CCC[C@H]5C(=O)N(C)CC(=O)N(C)[C@@H](C(C)C)C(=O)O[C@@H]4C)c3nc-2c(C(=O)N[C@@H]2C(=O)N[C@H](C(C)C)C(=O)N3CCC[C@H]3C(=O)N(C)CC(=O)N(C)[C@@H](C(C)C)C(=O)O[C@@H]2C)c(N)c1=O [Actinomycin D] (I: T[dV]P[Sar][NMeV] / II: T[dV]P[Sar][NMeV]; ester I:1-I:C, II:1-II:C; linker I:N-II:N via Actinocin(9to1))
CC50 (Tox21_110001=Tox21_111997): 0.00788 µM | CC50 (Tox21_110001=Tox21_202482): 0.000903 µM

CCCCCCCCCCCCCCCCn1cc[n+](C)c1 [1-Hexadecyl-3-methylimidazolium tetrafluoroborate]
CC50 (Tox21_110001=Tox21_202647): 12.9 µM

Cc1c(N)nc([C@H](CC(N)=O)NC[C@H](N)C(N)=O)nc1C(=O)N[C@H](C(=O)N[C@H](C)[C@@H](O)[C@H](C)C(=O)N[C@H](C(=O)NCCc1nc(-c2nc(C(=O)NCCC[S+](C)C)cs2)cs1)[C@@H](C)O)[C@@H](O[C@@H]1O[C@@H](CO)[C@@H](O)[C@H](O)[C@@H]1O[C@H]1O[C@H](CO)[C@@H](O)[C@H](OC(N)=O)[C@@H]1O)c1c[nH]cn1 [Bleomycin sulfate]
CC50 (Tox21_110001=Tox21_113599): 1.85 µM

CCc1nn(CCCN2CCN(c3cccc(Cl)c3)CC2)c(=O)n1CCOc1ccccc1 [Nefazodone hydrochloride]
CC50 (Tox21_110001=Tox21_111735): 9.43 µM | CC50 (Tox21_110001=Tox21_113574): 23.6 µM

CCCCCCCCCCCCN [Dodecylamine hydrochloride]
CC50 (Tox21_110001=Tox21_301702): 19.6 µM

CC[C@]1(O)C[C@@H]2CN(CCc3c([nH]c4ccccc34)[C@@](C(=O)OC)(c3cc4c(cc3OC)N(C)[C@H]3[C@@](O)(C(=O)OC)[C@H](OC(C)=O)[C@]5(CC)C=CCN6CC[C@]43[C@@H]65)C2)C1 [Vinblastine sulfate]
CC50 (Tox21_110001=Tox21_111498): 0.185 µM | CC50 (Tox21_110001=Tox21_112735): 2.29 µM

O=C(CCCN1CCC(O)(c2ccc(Cl)cc2)CC1)c1ccc(F)cc1 [Haloperidol]
CC50 (Tox21_110001=Tox21_110162): 20.6 µM | CC50 (Tox21_110001=Tox21_300475): 52.1 µM

C=C[C@H]1C[N@@]2CC[C@H]1C[C@H]2[C@H](O)c1ccnc2ccc(OC)cc12 [Quinine hydrochloride dihydrate]
CC50 (Tox21_110001=Tox21_303565): 50.6 µM

CC(=O)Nc1ccc(C(=O)CCl)cc1 [4'-(Chloroacetyl)acetanilide]
CC50 (Tox21_110001=Tox21_302954): 16.5 µM

O=C1OC(c2ccc(O)cc2)(c2ccc(O)cc2)c2ccccc21 [Phenolphthalein]
CC50 (Tox21_110001=Tox21_110838): 16.8 µM | CC50 (Tox21_110001=Tox21_202219): 25.4 µM | CC50 (Tox21_110001=Tox21_300282): 49.8 µM

COc1ccc(N)cc1N [2,4-Diaminoanisole sulfate hydrate]
CC50 (Tox21_110001=Tox21_302700): 48.9 µM

CC(C)NCC(O)COc1cccc2ccccc12 (centres unmarked) [Propranolol hydrochloride]
CC50 (Tox21_110001=Tox21_201886): 73 µM | CC50 (Tox21_110001=Tox21_302905): 30.5 µM

CN(C)CCCN1c2ccccc2CCc2ccc(Cl)cc21 [Clomipramine]
CC50 (Tox21_110001=Tox21_110117): 8.96 µM

CNCCC(Oc1ccc(C(F)(F)F)cc1)c1ccccc1 (centres unmarked) [Fluoxetine]
CC50 (Tox21_110001=Tox21_110144): 8.3 µM

CCn1c2ccccc2c2cc(N)ccc21 [3-Amino-9-ethylcarbazole]
CC50 (Tox21_110001=Tox21_303548): 93.2 µM

Oc1cc(Cl)ccc1Oc1ccc(Cl)cc1Cl [Triclosan]
CC50 (Tox21_110001=Tox21_111648): 50.4 µM | CC50 (Tox21_110001=Tox21_400079): 13.3 µM

CN(C)c1ccc2nc3ccc(=[N+](C)C)cc-3sc2c1 [Methylene Blue trihydrate]
CC50 (Tox21_110001=Tox21_202525): 27.1 µM

CC#C[C@]1(O)CC[C@H]2[C@@H]3CCC4=CC(=O)CCC4=C3[C@@H](c3ccc(N(C)C)cc3)C[C@@]21C [Mifepristone]
CC50 (Tox21_110001=Tox21_110952): 9.81 µM | CC50 (Tox21_110001=Tox21_301841): 36.7 µM

CN(C)C(=S)SC(=S)N(C)C [Tetramethylthiuram monosulfide]
CC50 (Tox21_110001=Tox21_111656): 2.19 µM | CC50 (Tox21_110001=Tox21_201554): 1.5 µM | CC50 (Tox21_110001=Tox21_302880): 0.329 µM

BrC1CCC(Br)C(Br)CCC(Br)C(Br)CCC1Br (centres unmarked) [1,2,5,6,9,10-Hexabromocyclododecane]
CC50 (Tox21_110001=Tox21_201402): 17.5 µM | CC50 (Tox21_110001=Tox21_303176): 38.8 µM

[H]/N=C(\N/C(=N/[H])NCCCCCCNC(=N)NC(=N)Nc1ccc(Cl)cc1)Nc1ccc(Cl)cc1 [Chlorhexidine]
CC50 (Tox21_110001=Tox21_110325): 12.4 µM | CC50 (Tox21_110001=Tox21_201404): 7.06 µM | CC50 (Tox21_110001=Tox21_303445): 6.48 µM

CCCCCCCCCCn1cc[n+](C)c1 [1-Decyl-3-methylimidazolium trifluoromethanesulfonate]
CC50 (Tox21_110001=Tox21_200593): 6.68 µM

COC(=O)C1=C(C)NC(C)=C(C(=O)OCCN(C)Cc2ccccc2)C1c1cccc([N+](=O)[O-])c1 (centres unmarked) [Nicardipine]
CC50 (Tox21_110001=Tox21_110211): 7.48 µM | CC50 (Tox21_110001=Tox21_301832): 22.2 µM

Cc1c(C)c2c(c(C)c1OC(=O)CCC(=O)O)CC[C@@](C)(CCC[C@H](C)CCC[C@H](C)CCCC(C)C)O2 [d-alpha-Tocopheryl succinate]
CC50 (Tox21_110001=Tox21_200568): 20 µM

CN(C)C(=S)SSC(=S)N(C)C [Thiram]
CC50 (Tox21_110001=Tox21_111150): 0.159 µM | CC50 (Tox21_110001=Tox21_201569): 12.7 µM | CC50 (Tox21_110001=Tox21_301102): 0.0524 µM

CCN(CC)C(=S)SSC(=S)N(CC)CC [Disulfiram]
CC50 (Tox21_110001=Tox21_110280): 19.9 µM | CC50 (Tox21_110001=Tox21_300403): 0.0747 µM | CC50 (Tox21_110001=Tox21_400072): 81.5 µM

O=C1C2CC=CCC2C(=O)N1SC(Cl)(Cl)Cl (centres unmarked) [Captan]
CC50 (Tox21_110001=Tox21_111065): 4.99 µM | CC50 (Tox21_110001=Tox21_201276): 76 µM | CC50 (Tox21_110001=Tox21_300772): 2.54 µM
